From patent US20030161854A1, “Synergistic formulations” (priority 2000, published 2003)

Test system: 1st instar larvae of Lucilia cuprina
Assay: In-vitro investigation for possible potentiation between spinosad and ivermectin in sheep blowfly larvae (treated chromatography papers, fractions of LC90)
Assay type: in vivo
Conditions: 48 hours
Method: Forty to 50 newly hatched 1st instar larvae of Lucilia cuprina were washed with sheep serum onto chromatography papers treated with serial dilutions of ivermectin or spinosad as set out below. After 48 hours numbers of live and dead larvae were counted. The LC90 was calculated for spinosad and ivermectin. Larvae were exposed to that concentration of spinosad or ivermectin and ½, ¼ and ⅛ of the LC90. In addition larvae were exposed to 1:1, 1:4, 4:1, 9:1 and 1:9 combinations of each chemical with each concentration of chemical being a fraction of the LC90.
There were 19 treatment groups in the study (plus an untreated control group):
D 12-14: Four:one rates of Ivermectin:Spinosad—(0.8×, 0.2×), (0.4×, 0.1×) and (0.2×, 0.05×)
E 15-17: Four:one rates of Spinosad:lvermectin—(0.8×, 0.2×), (0.4×, 0.1×) and (0.2×, 0.05×)
Each group was tested on 4 replicates of 50 flies and the number of dead flies per replicate was recorded.
The method of generalized linear models for overdispersed binomial data using the logistic link function was used for an analysis of the 19 treatment groups. The analysis estimated dose-response lines (on the logarithmic dose scale) for each chemical or combination. The lines for each separate chemical were used to predict the efficacy (on the logistic scale) of the combinations assuming independent action, i.e. with no synergism. These were compared with the efficacy observed or predicted from the dose-response lines for the combinations.

Row | Substance | Mean efficacy (Dose-response) % (0.125x LC90) [%] | Mean efficacy (Dose-response) Logit (0.125x LC90) | Mean efficacy (Sample estimate) % (0.125x LC90) [%] | Mean efficacy (Sample estimate) Logit (0.125x LC90) | Mean efficacy (Dose-response) % (0.25x LC90) [%] | Mean efficacy (Dose-response) Logit (0.25x LC90) | Mean efficacy (Sample estimate) % (0.25x LC90) [%] | Mean efficacy (Sample estimate) Logit (0.25x LC90) | Mean efficacy (Dose-response) % (0.5x LC90) [%] | Mean efficacy (Dose-response) Logit (0.5x LC90) | Mean efficacy (Sample estimate) % (0.5x LC90) [%] | Mean efficacy (Sample estimate) Logit (0.5x LC90) | Mean efficacy (Dose-response) % (1.0x LC90) [%] | Mean efficacy (Dose-response) Logit (1.0x LC90) | Mean efficacy (Sample estimate) % (1.0x LC90) [%] | Mean efficacy (Sample estimate) Logit (1.0x LC90)
1 | ivermectin | 1.6 | −4.14 ± 0.48 | 3.0 | −3.48 ± 0.64 | 13.2 | −1.88 ± 0.26 | 11.0 | −2.09 ± 0.35 | 59.4 | 0.38 ± 0.18 | 59.5 | 0.38 ± 0.22 | 93.3 | 2.64 ± 0.34 | 94.0 | 2.75 ± 0.46
2 | spinosad | 9.8 | −2.21 ± 0.28 | 16.0 | −1.66 ± 0.30 | 30.7 | −0.81 ± 0.17 | 22.0 | −1.27 ± 0.27 | 64.1 | 0.58 ± 0.16 | 63.0 | 0.53 ± 0.23 | 87.9 | 1.98 ± 0.27 | 91.5 | 2.38 ± 0.39
